Structures are written as SMILES.

For the first assay, the target named is Elastase (Pseudomonas aeruginosa (strain ATCC 15692 / PAO1 / 1C / PRS 101 / LMG12228), UniProt P14756). The assay is described as follows: Inhibition of Pseudomonas aeruginosa LasB by fluorimetric assay in buffer of pH 7.2.
Sequence of Elastase (P14756 whole entry): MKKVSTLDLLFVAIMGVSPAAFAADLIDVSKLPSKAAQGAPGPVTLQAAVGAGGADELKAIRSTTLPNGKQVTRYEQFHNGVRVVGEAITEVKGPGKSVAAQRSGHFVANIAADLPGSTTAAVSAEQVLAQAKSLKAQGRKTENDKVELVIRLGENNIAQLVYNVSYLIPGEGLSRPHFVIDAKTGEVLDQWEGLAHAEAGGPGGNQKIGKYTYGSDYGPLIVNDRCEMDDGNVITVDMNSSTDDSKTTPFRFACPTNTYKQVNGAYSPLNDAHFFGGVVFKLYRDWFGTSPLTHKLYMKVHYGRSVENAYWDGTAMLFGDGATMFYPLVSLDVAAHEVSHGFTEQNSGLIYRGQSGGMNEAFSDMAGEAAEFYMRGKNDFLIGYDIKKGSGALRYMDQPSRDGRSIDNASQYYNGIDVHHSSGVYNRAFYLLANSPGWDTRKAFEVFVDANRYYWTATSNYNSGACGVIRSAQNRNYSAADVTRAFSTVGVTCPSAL
Settings: not given; call rule not given here
What is called Ki is a dissociation constant, usually derived from enzyme kinetics or from competition with a known ligand. On to `N=C(N)NCCC[C@H](NC(=O)[C@H](CCCNC(=N)N)NC(=O)CS)C(N)=O`, for which the Ki result is reported as “Not Active”.
Regarding `CC(C)[C@H](NC(=O)[C@H](CC(=O)O)NC(=O)CS)C(N)=O`, the inhibition constant Ki result is reported as “Not Active”.
Same read-out and setting: the entry for `NC(=O)[C@H](CC(=O)O)NC(=O)[C@H](CO)NC(=O)CS` is “Not Active”; for `NC(=O)[C@H](CC(=O)O)NC(=O)[C@H](Cc1ccccc1)NC(=O)CS` it is “Not Active”; for `NC(=O)[C@H](Cc1ccccc1)NC(=O)[C@H](CC(=O)O)NC(=O)CS` it is “Not Active”.
On the same count and under the same terms, then `N=C(N)NCCC[C@H](NC(=O)[C@H](Cc1ccccc1)NC(=O)CS)C(N)=O`, with “Not Active”.
Take `CC(C)C[C@H](NC(=O)[C@@H](NC(=O)CS)[C@@H](C)O)C(N)=O`: the inhibition constant Ki entry is “Not Active”.
Take `NC(=O)CC[C@H](NC(=O)CS)C(=O)N[C@@H](Cc1ccccc1)C(N)=O`: the Ki entry is given as “Not Active”.
Same read-out and setting: then `C[C@@H](O)[C@H](NC(=O)CS)C(=O)N[C@@H](CC(=O)O)C(N)=O`, with “Not Active”.
On the same count and under the same terms, the entry for `NC(=O)[C@H](Cc1ccccc1)NC(=O)[C@@H]1CCCN1C(=O)CS` is “Not Active”; for `NCCCC[C@H](NC(=O)CS)C(=O)N[C@@H](Cc1c[nH]c2ccccc12)C(N)=O` it is “Not Active”.
The same measure, in the same setting: then `N=C(N)NCCC[C@H](NC(=O)[C@H](CCCCN)NC(=O)CS)C(N)=O`, with “Not Active”.
On to `NC(=O)[C@H](CC(=O)O)NC(=O)[C@H](Cc1c[nH]cn1)NC(=O)CS`, for which the inhibition constant Ki result is listed as “Not Active”.
On the same count and under the same terms, the entry for `CC(C)[C@H](NC(=O)[C@H](CCCNC(=N)N)NC(=O)CS)C(N)=O` is “Not Active”.
The same measure, in the same setting: the entry for `CC(C)C[C@H](NC(=O)CS)C(=O)N[C@H](C(N)=O)C(C)C` is “Not Active”; for `NC(=O)[C@H](CC(=O)O)NC(=O)[C@H](CC(=O)O)NC(=O)CS` it is “Not Active”.
Still for that read-out and setting: then `CC(C)C[C@H](NC(=O)[C@H](CS)NC(=O)CS)C(N)=O`, with “Not Active”.

Staying with this assay, now noted: read-out: Ki.
Take `NCCCC[C@H](NC(=O)[C@@H]1CCCN1C(=O)CS)C(N)=O`: the inhibition constant (Ki) stood at 766 µM.
The same measure, in the same setting: the figure for `NCCCC[C@H](NC(=O)[C@H](Cc1c[nH]cn1)NC(=O)CS)C(N)=O` is 332 µM.
On to `CC(C)[C@H](NC(=O)[C@H](CCC(N)=O)NC(=O)CS)C(N)=O`, for which the Ki came to 937 µM.
Same read-out and setting: the figure for `NC(=O)[C@H](Cc1c[nH]c2ccccc12)NC(=O)[C@H](Cc1c[nH]c2ccccc12)NC(=O)CS` is 49 µM.
Same read-out and setting: then `NCCCC[C@H](NC(=O)[C@H](CC(N)=O)NC(=O)CS)C(N)=O`, with 289 µM; and `CC(C)C[C@H](NC(=O)[C@H](Cc1c[nH]cn1)NC(=O)CS)C(N)=O`, with 306 µM; and `NC(=O)[C@H](Cc1c[nH]c2ccccc12)NC(=O)[C@H](Cc1ccccc1)NC(=O)CS`, with 206 µM.
In the case of `C[C@H](NC(=O)CS)C(=O)N[C@@H](Cc1c[nH]c2ccccc12)C(N)=O`, the Ki was 395 µM.
Still for that read-out and setting: the figure for `NC(=O)[C@H](CCCN=C(N)N)NC(=O)[C@H](CC(=O)O)NC(=O)CS` is 551 µM; for `CC[C@@H](C)[C@H](NC(=O)CS)C(=O)N[C@@H](CC(C)C)C(N)=O` it is 1.3 µM; for `CC(C)C[C@H](NC(=O)[C@H](CC(=O)O)NC(=O)CS)C(N)=O` it is 118 µM.
With `CC(C)C[C@H](NC(=O)[C@H](CCC(N)=O)NC(=O)CS)C(N)=O`, the Ki was determined as 540 µM.
On the same count and under the same terms, then `CC(C)C[C@H](NC(=O)[C@H](CO)NC(=O)CS)C(N)=O`, with 510 µM; and `NC(=O)CC[C@H](NC(=O)CS)C(=O)N[C@@H](CCCN=C(N)N)C(N)=O`, with 217 µM; and `CC(C)[C@H](NC(=O)[C@H](CO)NC(=O)CS)C(N)=O`, with 229 µM.
On the same count and under the same terms, then `NC(=O)[C@H](Cc1c[nH]c2ccccc12)NC(=O)[C@H](CCC(=O)O)NC(=O)CS`, with 704 µM.
The same measure, in the same setting: the figure for `NC(=O)CC[C@H](NC(=O)CS)C(=O)N[C@@H](Cc1c[nH]c2ccccc12)C(N)=O` is 91 µM.
Regarding `NCCCC[C@H](NC(=O)[C@H](Cc1ccccc1)NC(=O)CS)C(N)=O`, the Ki was 76 µM.
The same measure, in the same setting: then `NCCCC[C@H](NC(=O)[C@H](CS)NC(=O)CS)C(N)=O`, with 274 µM.
For `CC(C)[C@H](NC(=O)CS)C(=O)N[C@@H](CCCCN)C(N)=O`, the Ki came to 22 µM.
`NC(=O)[C@H](Cc1c[nH]c2ccccc12)NC(=O)[C@H](CC(=O)O)NC(=O)CS`: the Ki came out at 207 µM.
Take `N=C(N)NCCC[C@H](NC(=O)[C@H](CS)NC(=O)CS)C(N)=O`: the Ki was 646 µM.
Still for that read-out and setting: then `NC(=O)C[C@H](NC(=O)CS)C(=O)N[C@@H](Cc1c[nH]c2ccccc12)C(N)=O`, with 70 µM.
On the same count and under the same terms, then `NC(=O)[C@H](Cc1ccccc1)NC(=O)[C@H](Cc1ccc(O)cc1)NC(=O)CS`, with 6.5 µM; and `NC(=O)[C@H](Cc1ccccc1)NC(=O)CNC(=O)CS`, with 51 µM.
On the same count and under the same terms, the figure for `NC(=O)[C@H](Cc1c[nH]c2ccccc12)NC(=O)[C@H](Cc1cnc[nH]1)NC(=O)CS` is 18 µM; for `NC(=O)[C@H](CC(=O)O)NC(=O)[C@H](Cc1ccc(O)cc1)NC(=O)CS` it is 5.5 µM; for `CC(C)[C@H](NC(=O)[C@H](CCCCN)NC(=O)CS)C(N)=O` it is 555 µM.
Take `CC(C)C[C@H](NC(=O)[C@@H](NC(=O)CS)C(C)C)C(N)=O`: the Ki is 69 µM.
In the case of `C[C@H](NC(=O)CS)C(=O)N[C@@H](CCCNC(=N)N)C(N)=O`, the Ki is 115 µM.
Still for that read-out and setting: then `CC(C)C[C@H](NC(=O)[C@@H]1CCCN1C(=O)CS)C(N)=O`, with 246 µM.
The same measure, in the same setting: then `CC(C)[C@H](NC(=O)[C@@H]1CCCN1C(=O)CS)C(N)=O`, with 157 µM; and `N=C(N)NCCC[C@H](NC(=O)[C@H](CO)NC(=O)CS)C(N)=O`, with 444 µM; and `NC(=O)[C@H](CC(=O)O)NC(=O)[C@H](Cc1c[nH]c2ccccc12)NC(=O)CS`, with 38 µM.
The same measure, in the same setting: the figure for `NC(=O)[C@H](Cc1ccccc1)NC(=O)[C@H](Cc1cnc[nH]1)NC(=O)CS` is 21 µM; for `CC(C)[C@H](NC(=O)[C@@H](NC(=O)CS)[C@@H](C)O)C(N)=O` it is 377 µM.
Regarding `CC(C)[C@H](NC(=O)[C@H](Cc1c[nH]c2ccccc12)NC(=O)CS)C(N)=O`, the Ki turned out to be 4.1 µM.
Same read-out and setting: then `CC(C)[C@H](NC(=O)[C@H](Cc1ccccc1)NC(=O)CS)C(N)=O`, with 11 µM; and `CC[C@@H](C)[C@H](NC(=O)CS)C(=O)N[C@@H](CCCCN)C(N)=O`, with 190 µM; and `CC(C)[C@H](NC(=O)CS)C(=O)N[C@@H](Cc1ccccc1)C(N)=O`, with 72 µM.
Same read-out and setting: then `NC(=O)[C@H](Cc1ccccc1)NC(=O)[C@H](Cc1c[nH]c2ccccc12)NC(=O)CS`, with 1.1 µM; and `CC(C)[C@H](NC(=O)[C@H](CC(N)=O)NC(=O)CS)C(N)=O`, with 180 µM.
Still for that read-out and setting: then `CC[C@@H](C)[C@H](NC(=O)CS)C(=O)N[C@@H](Cc1c[nH]c2ccccc12)C(N)=O`, with 366 µM.
For `CC(C)C[C@H](NC(=O)CS)C(=O)N[C@@H](CC(=O)O)C(N)=O`, the inhibitory constant (Ki) came to 587 µM.
`CC(C)C[C@H](NC(=O)CNC(=O)CS)C(N)=O`: the inhibition constant Ki is 138 µM.
On to `NC(=O)[C@H](Cc1ccccc1)NC(=O)[C@H](CS)NC(=O)CS`, for which the Ki worked out at 131 µM.
The same measure, in the same setting: then `NCCCC[C@H](NC(=O)[C@H](Cc1c[nH]c2ccccc12)NC(=O)CS)C(N)=O`, with 10 µM; and `C[C@@H](O)[C@H](NC(=O)CS)C(=O)N[C@@H](Cc1ccccc1)C(N)=O`, with 225 µM.
`NC(=O)[C@H](Cc1c[nH]c2ccccc12)NC(=O)[C@H](CS)NC(=O)CS`: the Ki is 108 µM.
Same read-out and setting: then `NC(=O)[C@H](Cc1c[nH]c2ccccc12)NC(=O)CNC(=O)CS`, with 122 µM; and `N=C(N)NCCC[C@H](NC(=O)[C@H](CC(N)=O)NC(=O)CS)C(N)=O`, with 280 µM.
The same measure, in the same setting: the figure for `CSCC[C@H](NC(=O)CS)C(=O)N[C@@H](Cc1c[nH]c2ccccc12)C(N)=O` is 204 µM; for `NC(=O)C[C@H](NC(=O)CS)C(=O)N[C@@H](Cc1ccccc1)C(N)=O` it is 37 µM.
The same measure, in the same setting: the figure for `NCCCC[C@H](NC(=O)CS)C(=O)N[C@@H](CC(=O)O)C(N)=O` is 971 µM; for `CC(C)[C@H](NC(=O)[C@H](CCC(=O)O)NC(=O)CS)C(N)=O` it is 730 µM.
`CC(C)C[C@H](NC(=O)CS)C(=O)N[C@@H](CCCNC(=N)N)C(N)=O`: the inhibitory constant (Ki) was 623 µM.
Same read-out and setting: the figure for `CC(C)[C@H](NC(=O)[C@H](C)NC(=O)CS)C(N)=O` is 51 µM.
Still for that read-out and setting: the figure for `CC(C)C[C@H](NC(=O)[C@H](CC(C)C)NC(=O)CS)C(N)=O` is 53 µM.

Values taken from ChEMBL document CHEMBL1154297, “Inhibitor profiling of the Pseudomonas aeruginosa virulence factor LasB using N-alpha mercaptoamide template-based inhibitors” (Bioorg Med Chem Lett, 2009).
